Three compounds from ChEMBL document CHEMBL5150005, “Discovery of 5-{4-[(7-Ethyl-6-oxo-5,6-dihydro-1,5-naphthyridin-3-yl)methyl]piperazin-1-yl}-N-methylpyridine-2-carboxamide (AZD5305): A PARP1-DNA Trapper with High Selectivity for PARP1 over PARP2 and Other PARPs” (J Med Chem, 2021) can be followed below.

A short description of series [1]: Plasma clearance in rat. It is filed as ADME.
Series [2] is described as follows: Oral bioavailability in monkey. The series is classed as ADME, organism-based, Macaca mulatta. Particulars: rhesus monkey, in vivo.
Series [3] is described as follows: Aqueous solubility of the compound at pH 7.4. It is filed as physicochemical. The conditions noted are these: buffer.
The nature of series [4]: Unbound clearance in dog. The series is classed as ADME, Canis lupus familiaris. The conditions noted are these: in vivo.
Series [5] addresses Protein mono-ADP-ribosyltransferase PARP4 (Homo sapiens) (UniProt Q9UKK3). The series can be described thus: Binding affinity to PARP4 (unknown origin) assessed as apparent dissociation constant.
In series [6] the target is Protein mono-ADP-ribosyltransferase PARP9 (Homo sapiens, UniProt Q8IXQ6).
A short description of series [7]: Unbound clearance in rat. It is filed as ADME. The conditions noted are these: in vivo.
A short description of another series: physchem. Particulars: buffer, pH 7.4.
Series [8] concerns the target Protein mono-ADP-ribosyltransferase PARP16 (Homo sapiens) (UniProt Q8N5Y8). The series can be described thus: Binding affinity to PARP16 (unknown origin) assessed as apparent dissociation constant.
Series [9] is described as follows: Oral bioavailability in dog. The series is classed as ADME, organism-based, Canis lupus familiaris. Particulars: in vivo.
Series [10] can be described thus: Half life in monkey. The series is classed as ADME, Macaca mulatta. Particulars: rhesus monkey, in vivo.
Series [11] in a line: Plasma clearance in monkey. The series is classed as ADME, Macaca mulatta. The conditions noted are these: rhesus monkey.
Series [12] can be described thus: Volume of distribution at steady state in mouse. It is filed as ADME, organism-based. Particulars: in vivo, read-out: Vdss.
Series [13] has as its target Poly [ADP-ribose] polymerase tankyrase-1 (Homo sapiens) (UniProt O95271). The series can be described thus: Binding affinity to PARP5a (unknown origin) assessed as apparent dissociation constant.
A short description of series [14]: in vitro. Particulars: rat, plasma.
Series [15] in a line: Half life in mouse. It is filed as ADME, organism-based. The conditions noted are these: in vivo.
Series [16] in a line: Half life in dog. It is filed as ADME, Canis lupus familiaris. Particulars: in vivo.
Series [17] concerns the target Protein mono-ADP-ribosyltransferase PARP3 (Homo sapiens) (UniProt Q9Y6F1). As to the kind of experiment: Binding affinity to PARP3 (unknown origin) assessed as apparent dissociation constant.
Series [18] in a line: Unbound clearance in mouse. It is filed as ADME, organism-based. The conditions noted are these: in vivo.
A short description of series [19]: Volume of distribution at steady state in dog. It is filed as ADME, Canis lupus familiaris. The conditions noted are these: in vivo, read-out: Vdss.
Series [20] is described as follows: Antitumor activity against patient derived explant HBCx-17 cells xenografted in mouse assessed as tumor regression administered daily at 1 mg/kg, po for 25 days relative to control. It is filed as functional, Homo sapiens. Particulars: time 25 day. On the technique in general: Xenograft models place foreign cells or tissue in a host animal.
Series [21] in a line: Half life in rat. The series is classed as ADME. The conditions noted are these: in vivo.
A short description of series [22]: Oral bioavailability in mouse. It is filed as ADME, organism-based. The conditions noted are these: in vivo.
Series [23] can be described thus: in vitro. The conditions noted are these: dog, plasma.
Series [24] in a line: Intrinsic clearance in human hepatocytes measured per million of cells. Particulars: read-out: CLH. The series is classed as ADME, cell-based, Hepatocyte.
Series [25] is described as follows: Antitumor activity against patient derived explant HBCx-17 cells xenografted in mouse assessed as tumor regression administered daily at 0.1 mg/kg, po for 25 days relative to control. The conditions noted are these: time 25 day. The series is classed as functional, Homo sapiens.
Series [26] in a line: Hematotoxicity in CD34+ hematopoietic stem/progenitor cells (unknown origin) assessed as remaining viable cells treated at 100 nM for 5 days by cell-tire-Glo-2.0 luminescence based assay relative to control. It is filed as toxicity, CD34-positive hematopoietic stem/progenitor cell. The conditions noted are these: time 5 day, read-out: Activity.
Series [27] addresses T1, Protein mono-ADP-ribosyltransferase PARP8 (Homo sapiens) (UniProt Q8N3A8).
T1 sequence (whole entry): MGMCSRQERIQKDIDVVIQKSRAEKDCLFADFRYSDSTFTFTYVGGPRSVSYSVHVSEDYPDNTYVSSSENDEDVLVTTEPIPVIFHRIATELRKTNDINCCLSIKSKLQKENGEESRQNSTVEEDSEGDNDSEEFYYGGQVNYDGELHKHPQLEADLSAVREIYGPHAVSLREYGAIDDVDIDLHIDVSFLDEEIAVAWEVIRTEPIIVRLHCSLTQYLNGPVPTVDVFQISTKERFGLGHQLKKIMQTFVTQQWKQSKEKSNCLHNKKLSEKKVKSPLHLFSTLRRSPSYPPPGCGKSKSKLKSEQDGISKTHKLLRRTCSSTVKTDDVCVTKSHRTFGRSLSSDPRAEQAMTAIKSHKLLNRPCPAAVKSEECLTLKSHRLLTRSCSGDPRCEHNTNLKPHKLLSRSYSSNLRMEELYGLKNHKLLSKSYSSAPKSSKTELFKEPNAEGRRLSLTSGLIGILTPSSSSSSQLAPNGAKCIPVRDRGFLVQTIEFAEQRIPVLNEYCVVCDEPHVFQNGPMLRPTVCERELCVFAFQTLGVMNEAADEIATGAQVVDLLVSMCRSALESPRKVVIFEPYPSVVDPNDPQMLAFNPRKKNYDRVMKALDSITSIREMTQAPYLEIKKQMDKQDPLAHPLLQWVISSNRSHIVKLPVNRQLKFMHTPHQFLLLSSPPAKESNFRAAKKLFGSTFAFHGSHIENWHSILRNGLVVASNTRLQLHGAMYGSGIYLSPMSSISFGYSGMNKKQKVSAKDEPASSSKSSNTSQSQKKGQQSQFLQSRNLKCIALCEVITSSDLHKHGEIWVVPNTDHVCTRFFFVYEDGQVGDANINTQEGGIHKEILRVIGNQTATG

The target of series [28] is Protein mono-ADP-ribosyltransferase PARP14 (Homo sapiens) (UniProt Q460N5).
Series [29] is described as follows: Hematotoxicity in CD34+ hematopoietic stem/progenitor cells (unknown origin) assessed as reduction of cell viability treated at 3 nM for 5 days by cell-tire-Glo-2.0 luminescence based assay. Particulars: cd34-positive hematopoietic stem/progenitor cell, 120 h, 0.003 µM, time 5 day. The series is classed as toxicity.
A short description of series [30]: Oral bioavailability in rat. It is filed as ADME, organism-based. Particulars: in vivo.
Series [31] can be described thus: Antitumor activity against patient derived explant HBCx-17 cells xenografted in mouse assessed as tumor regression administered daily at 10 mg/kg, po for 25 days relative to control. Particulars: time 25 day. It is filed as functional, Homo sapiens.
The nature of series [32]: Volume of distribution at steady state in monkey. It is filed as ADME, Macaca mulatta. Particulars: rhesus monkey, in vivo; read-out: Vdss.
The nature of series [33]: Unbound clearance in monkey. It is filed as ADME, Macaca mulatta. The conditions noted are these: rhesus monkey, in vivo.
In series [34] the target is Protein mono-ADP-ribosyltransferase PARP12 (Homo sapiens) (UniProt Q9H0J9).
Series [35] can be described thus: Hematotoxicity in CD34+ hematopoietic stem/progenitor cells (unknown origin) assessed as reduction of cell viability treated for 5 days by cell-tire-Glo-2.0 luminescence based assay. It is filed as toxicity, CD34-positive hematopoietic stem/progenitor cell. Particulars: for Activity: cd34-positive hematopoietic stem/progenitor cell, 120 h, DDE = dose-dependent effect, dose lower 1e-05 µM, dose upper 100 µM, time 5 day.

Series [36] has as its target Protein mono-ADP-ribosyltransferase PARP10 (Homo sapiens, UniProt Q53GL7). The series can be described thus: Binding affinity to PARP10 (unknown origin) assessed as apparent dissociation constant. Particulars: read-out: Kd(app).
Series [37] in a line: in vitro. Particulars: human, liver microsomes. In general terms: Liver microsomes are vesicles of endoplasmic reticulum, rich in cytochrome P450 enzymes.
A short description of series [38]: Plasma clearance in mouse. The series is classed as ADME, organism-based.
Series [39] is described as follows: Plasma clearance in dog. It is filed as ADME, Canis lupus familiaris.
Series [40] in a line: in vitro. The conditions noted are these: rhesus monkey, plasma.
Series [41] is described as follows: Antitumor activity against patient derived explant HBCx-17 cells xenografted in mouse assessed as tumor regression administered daily at 0.03 mg/kg, po for 25 days relative to control. The conditions noted are these: time 25 day. It is filed as functional, Homo sapiens.
Another series concerns DLD-1. As to the kind of experiment: Antiproliferative activity against human DLD-1 deficient in BRCA-2 cells measured after 7 days. The conditions noted are these: Homo sapiens, DLD-1, 168 h. The series is classed as functional, cell-based.
The nature of series [42]: Volume of distribution at steady state in rat. The series is classed as ADME. The conditions noted are these: in vivo, read-out: Vdss.
Series [43] is described as follows: Antitumor activity against patient derived explant HBCx-17 cells xenografted in mouse assessed as tumor regression administered daily at 100 mg/kg, po for 25 days relative to control. The series is classed as functional, Homo sapiens. Particulars: time 25 day.
Series [44] deals with Protein mono-ADP-ribosyltransferase TIPARP (Homo sapiens) (UniProt Q7Z3E1).
Series [45] is described as follows: Hematotoxicity in CD34+ hematopoietic stem/progenitor cells (unknown origin) assessed as reduction of cell viability treated at 0.00001 to 100 uM for 5 days by cell-tire-Glo-2.0 luminescence based assay relative to control. It is filed as toxicity. Particulars: cd34-positive hematopoietic stem/progenitor cell, 120 h, dose lower 1e-05 µM, dose upper 100 µM, time 5 day.

The target of series [46] is Protein mono-ADP-ribosyltransferase PARP12 (Homo sapiens, UniProt Q9H0J9).
The target of series [47] is Protein mono-ADP-ribosyltransferase PARP8 (Homo sapiens, UniProt Q8N3A8). The series can be described thus: Binding affinity to PARP8 (unknown origin) assessed as apparent dissociation constant. Particulars: read-out: Kd(app).
Series [48] deals with Poly [ADP-ribose] polymerase tankyrase-2 (Homo sapiens) (UniProt Q9H2K2).

Converted amounts (≈) assume the structure as drawn. The source made the active and inactive calls.

Protein mono-ADP-ribosyltransferase PARP16 (Homo sapiens), sequence (Q8N5Y8 whole entry): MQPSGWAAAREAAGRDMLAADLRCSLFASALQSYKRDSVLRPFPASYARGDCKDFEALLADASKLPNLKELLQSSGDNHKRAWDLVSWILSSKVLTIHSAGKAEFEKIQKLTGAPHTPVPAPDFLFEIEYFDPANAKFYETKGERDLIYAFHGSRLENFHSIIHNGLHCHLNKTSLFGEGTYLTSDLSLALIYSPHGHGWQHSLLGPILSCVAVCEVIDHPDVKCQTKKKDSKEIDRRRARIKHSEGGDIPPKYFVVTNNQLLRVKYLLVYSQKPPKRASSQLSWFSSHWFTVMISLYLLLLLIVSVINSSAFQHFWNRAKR
Protein mono-ADP-ribosyltransferase PARP12 (Homo sapiens), sequence (Q9H0J9 whole entry): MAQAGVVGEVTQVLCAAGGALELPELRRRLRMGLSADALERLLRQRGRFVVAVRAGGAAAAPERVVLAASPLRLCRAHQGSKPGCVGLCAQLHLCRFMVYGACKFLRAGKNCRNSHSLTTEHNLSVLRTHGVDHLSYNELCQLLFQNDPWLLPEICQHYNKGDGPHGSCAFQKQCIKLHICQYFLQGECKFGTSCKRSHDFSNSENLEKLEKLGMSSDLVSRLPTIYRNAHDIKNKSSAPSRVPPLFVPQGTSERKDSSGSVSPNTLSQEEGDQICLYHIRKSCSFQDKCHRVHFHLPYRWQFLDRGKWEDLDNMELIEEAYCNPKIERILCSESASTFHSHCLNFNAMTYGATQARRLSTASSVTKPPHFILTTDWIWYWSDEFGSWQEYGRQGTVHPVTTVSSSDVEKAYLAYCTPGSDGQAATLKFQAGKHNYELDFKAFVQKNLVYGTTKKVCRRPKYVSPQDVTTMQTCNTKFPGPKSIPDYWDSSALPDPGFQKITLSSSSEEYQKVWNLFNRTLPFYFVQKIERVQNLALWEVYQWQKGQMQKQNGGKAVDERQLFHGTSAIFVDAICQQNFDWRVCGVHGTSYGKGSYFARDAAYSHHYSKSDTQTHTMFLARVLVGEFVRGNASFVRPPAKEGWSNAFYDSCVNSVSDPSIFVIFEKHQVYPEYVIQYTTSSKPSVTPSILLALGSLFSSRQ
Protein mono-ADP-ribosyltransferase PARP12, sequence (Q9H0J9 whole entry): as above
Poly [ADP-ribose] polymerase tankyrase-2 (Homo sapiens), sequence (Q9H2K2 whole entry): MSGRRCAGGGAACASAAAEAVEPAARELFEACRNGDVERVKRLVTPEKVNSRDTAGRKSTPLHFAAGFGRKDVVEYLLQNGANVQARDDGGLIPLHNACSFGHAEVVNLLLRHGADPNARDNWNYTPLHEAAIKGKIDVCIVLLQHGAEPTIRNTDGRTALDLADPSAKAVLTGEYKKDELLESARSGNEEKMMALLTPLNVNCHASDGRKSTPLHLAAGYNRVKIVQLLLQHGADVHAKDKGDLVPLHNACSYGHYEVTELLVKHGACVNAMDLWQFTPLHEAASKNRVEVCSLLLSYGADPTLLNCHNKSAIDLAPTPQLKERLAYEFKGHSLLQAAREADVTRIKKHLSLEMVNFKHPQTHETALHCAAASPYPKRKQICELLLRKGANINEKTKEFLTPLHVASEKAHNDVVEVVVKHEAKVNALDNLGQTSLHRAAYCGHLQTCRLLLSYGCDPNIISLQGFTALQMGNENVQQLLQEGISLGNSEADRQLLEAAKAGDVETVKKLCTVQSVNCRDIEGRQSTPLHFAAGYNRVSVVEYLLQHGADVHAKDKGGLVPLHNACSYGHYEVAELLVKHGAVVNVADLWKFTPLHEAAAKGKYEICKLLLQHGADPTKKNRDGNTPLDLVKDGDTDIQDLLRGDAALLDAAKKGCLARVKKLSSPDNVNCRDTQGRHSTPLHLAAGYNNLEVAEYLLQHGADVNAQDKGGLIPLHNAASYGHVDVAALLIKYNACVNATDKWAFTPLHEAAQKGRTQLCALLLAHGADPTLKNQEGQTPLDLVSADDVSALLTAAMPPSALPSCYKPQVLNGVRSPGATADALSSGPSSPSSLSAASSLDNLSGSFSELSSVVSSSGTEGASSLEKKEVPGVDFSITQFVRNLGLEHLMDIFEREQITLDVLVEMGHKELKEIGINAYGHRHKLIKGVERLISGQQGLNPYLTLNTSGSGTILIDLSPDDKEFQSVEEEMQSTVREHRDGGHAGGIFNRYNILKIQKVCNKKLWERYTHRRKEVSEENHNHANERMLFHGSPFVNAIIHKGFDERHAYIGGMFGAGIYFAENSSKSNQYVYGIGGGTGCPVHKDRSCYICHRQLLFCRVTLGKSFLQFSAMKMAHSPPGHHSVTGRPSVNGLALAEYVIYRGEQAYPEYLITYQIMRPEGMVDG
Poly [ADP-ribose] polymerase tankyrase-1 (Homo sapiens), sequence (O95271 whole entry): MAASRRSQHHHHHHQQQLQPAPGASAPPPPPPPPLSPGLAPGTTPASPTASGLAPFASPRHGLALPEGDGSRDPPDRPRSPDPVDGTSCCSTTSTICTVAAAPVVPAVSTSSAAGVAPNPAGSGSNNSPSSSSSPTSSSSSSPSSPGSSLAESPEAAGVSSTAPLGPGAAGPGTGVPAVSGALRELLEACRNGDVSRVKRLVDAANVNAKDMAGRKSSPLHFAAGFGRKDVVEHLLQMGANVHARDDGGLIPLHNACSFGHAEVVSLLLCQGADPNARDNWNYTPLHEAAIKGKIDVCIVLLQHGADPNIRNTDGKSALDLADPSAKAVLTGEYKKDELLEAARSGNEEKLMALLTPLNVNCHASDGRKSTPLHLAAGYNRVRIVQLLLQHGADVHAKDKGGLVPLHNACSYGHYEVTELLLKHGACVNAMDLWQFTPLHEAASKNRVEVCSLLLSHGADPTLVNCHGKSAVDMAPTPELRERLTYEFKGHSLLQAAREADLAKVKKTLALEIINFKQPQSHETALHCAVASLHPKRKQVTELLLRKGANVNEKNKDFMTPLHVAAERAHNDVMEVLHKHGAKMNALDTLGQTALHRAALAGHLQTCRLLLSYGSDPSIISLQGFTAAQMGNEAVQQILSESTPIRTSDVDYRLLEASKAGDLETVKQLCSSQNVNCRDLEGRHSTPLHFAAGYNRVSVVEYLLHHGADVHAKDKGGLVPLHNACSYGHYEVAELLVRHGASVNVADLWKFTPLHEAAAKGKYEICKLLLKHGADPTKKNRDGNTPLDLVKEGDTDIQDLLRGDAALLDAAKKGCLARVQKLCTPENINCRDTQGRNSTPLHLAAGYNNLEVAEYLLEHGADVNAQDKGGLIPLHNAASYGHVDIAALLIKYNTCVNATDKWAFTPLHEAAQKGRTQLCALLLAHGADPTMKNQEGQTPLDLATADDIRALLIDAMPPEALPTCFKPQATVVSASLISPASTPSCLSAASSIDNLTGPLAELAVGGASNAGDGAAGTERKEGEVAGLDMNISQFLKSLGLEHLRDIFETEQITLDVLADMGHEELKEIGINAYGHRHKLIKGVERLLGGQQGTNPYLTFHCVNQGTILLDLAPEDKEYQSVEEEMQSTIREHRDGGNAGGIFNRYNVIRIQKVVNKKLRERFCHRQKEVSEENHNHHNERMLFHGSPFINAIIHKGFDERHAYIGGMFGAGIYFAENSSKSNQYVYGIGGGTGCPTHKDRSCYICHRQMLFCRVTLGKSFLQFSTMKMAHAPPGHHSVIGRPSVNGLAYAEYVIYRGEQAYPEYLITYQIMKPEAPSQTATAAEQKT
Protein mono-ADP-ribosyltransferase PARP3 (Homo sapiens), sequence (Q9Y6F1 whole entry): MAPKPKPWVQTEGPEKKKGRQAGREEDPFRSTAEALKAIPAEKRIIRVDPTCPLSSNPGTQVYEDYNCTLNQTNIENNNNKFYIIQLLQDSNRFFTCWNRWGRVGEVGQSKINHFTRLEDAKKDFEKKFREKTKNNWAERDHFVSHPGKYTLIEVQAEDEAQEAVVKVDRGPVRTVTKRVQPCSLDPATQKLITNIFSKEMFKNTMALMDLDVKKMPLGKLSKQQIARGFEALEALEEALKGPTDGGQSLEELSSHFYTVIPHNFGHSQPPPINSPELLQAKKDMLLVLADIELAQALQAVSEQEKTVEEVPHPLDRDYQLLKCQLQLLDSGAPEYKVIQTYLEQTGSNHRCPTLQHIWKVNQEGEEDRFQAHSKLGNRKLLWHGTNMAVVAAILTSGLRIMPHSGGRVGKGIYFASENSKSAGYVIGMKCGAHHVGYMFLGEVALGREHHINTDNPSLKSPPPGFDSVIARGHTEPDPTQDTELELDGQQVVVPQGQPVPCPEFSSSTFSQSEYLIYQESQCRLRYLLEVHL
Protein mono-ADP-ribosyltransferase TIPARP (Homo sapiens), sequence (Q7Z3E1 whole entry): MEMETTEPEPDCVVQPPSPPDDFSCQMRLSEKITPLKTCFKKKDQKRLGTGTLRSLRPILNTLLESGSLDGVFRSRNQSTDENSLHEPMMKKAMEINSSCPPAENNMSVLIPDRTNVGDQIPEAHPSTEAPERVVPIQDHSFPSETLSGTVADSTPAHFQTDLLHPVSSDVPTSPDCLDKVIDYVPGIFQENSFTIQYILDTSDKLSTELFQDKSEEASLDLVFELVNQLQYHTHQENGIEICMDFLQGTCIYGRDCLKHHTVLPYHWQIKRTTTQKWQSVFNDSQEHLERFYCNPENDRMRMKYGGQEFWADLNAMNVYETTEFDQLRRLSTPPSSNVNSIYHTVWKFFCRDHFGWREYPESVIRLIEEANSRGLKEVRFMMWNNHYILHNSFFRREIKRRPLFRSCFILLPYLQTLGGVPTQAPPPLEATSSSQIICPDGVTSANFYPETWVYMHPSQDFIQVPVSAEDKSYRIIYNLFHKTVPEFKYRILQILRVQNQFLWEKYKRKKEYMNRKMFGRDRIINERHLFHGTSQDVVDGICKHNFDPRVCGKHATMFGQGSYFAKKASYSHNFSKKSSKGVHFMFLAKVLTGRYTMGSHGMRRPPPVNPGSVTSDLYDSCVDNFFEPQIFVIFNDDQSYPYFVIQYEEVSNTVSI

A word on the clearance: it is the rate of elimination divided by the concentration. The term solubility denotes the dissolved amount per volume that the medium holds. As a reminder, the logD is lipophilicity at a set pH, counting ionised and neutral species. One may read the half-life as the time needed for the level to fall by half in the phase considered. What is called fraction unbound is the share of the substance not bound to proteins or other matrix. Usually microsomal CLint stands for the rate of metabolic loss divided by the concentration. As a reminder, the IC50 is the midpoint of a concentration-inhibition curve. `CCc1cc2ncc(CN3CCN(c4ccc(C(=O)NC)nc4)CC3)cc2[nH]c1=O` [SARUPARIB]: the clearance in series [1] worked out at 1.1 mL/min/kg; in series [11] it was 0.84 mL/min/kg; in series [38], 0.23 mL/min/kg; in series [39] it was 0.35 mL/min/kg. In addition, the bioavailability in [2] worked out at 122%; in series [9], 73%; in [22], 77%; in [30] it was 132%. In series [3], this compound came in with a solubility of 50 µM (≈ 20.3 µg/mL). In addition, the CL free in [4] came to 2.1 mL/min/kg; in series [7] it was 34 mL/min/kg; in [18] it was 3.2 mL/min/kg; in [33] it was 20 mL/min/kg. The “Kd(app)” value in series [5], in [6], in [8], in series [13], in [17] and in [27] was “Active” each time. Besides, the “Kd(app)” value in series [28] and in series [34] was “Active” in each case. The logD in “physchem” was found to be 1.9. The half-life in series [10] was 7.1 h; in [15] it was 8 h; in [16] it was 10 h; in series [21], 4.6 h. Further, the Vd in [12] is 0.17 L/kg; in [19], 0.3 L/kg; in [32], 0.38 L/kg; in series [42], 0.38 L/kg. For the same compound, the figures for the unbound share (fraction unbound) in the series “in vitro [14]”, in “in vitro [23]” and in the series “in vitro [40]” were 0.032, 0.17 and 0.043, respectively. For the same compound, the Activity in series [20] is listed as 86%; in series [25], 73%; in [29], “Toxic”; in [31], 84%; in series [35] it was “Dde”; in [41] it was 23%. Also, in series [24], the hepatocyte CLint is less than 1 µL/min/1e6 cells. The viability at 120 h, 0.1 µM in series [26] was found to be 46%. The Kd in series [36] was more than 10000 nM. This compound also gave an intrinsic metabolic clearance (microsomal CLint) in “in vitro [37]” of less than 3 µL/min/mg. Half-maximal inhibition with DLD-1 (IC50) was put at 2 nM.

In the case of `O=C(c1cc(Cc2n[nH]c(=O)c3ccccc23)ccc1F)N1CCN(C(=O)C2CC2)CC1` [OLAPARIB], the Activity in series [43] is recorded as 81%. The compound also had an IC50 in the series with DLD-1 of 42 nM.

Consider `Cn1ncnc1[C@H]1c2n[nH]c(=O)c3cc(F)cc(c23)N[C@@H]1c1ccc(F)cc1` [TALAZOPARIB], for which the “Kd(app)” value in [44], in series [6] and in series [48] was “Active” in each case. Besides, the Activity in [45] was 1%; in series [35], “Dde”. Moreover, the Kd in series [46] was more than 10000 nM; in series [47], 1100 nM. Further, the viability at 120 h, 0.1 µM in [26] amounted to 10%. In addition, the IC50 at 5 days in series [35] (CD34+ hematopoietic stem/progenitor cells) stood at 27 nM. This compound showed a half-maximal inhibitory concentration (IC50) with DLD-1 of 2 nM.
